The values below come from patent US10933063B2 (priority 2017, dated 2021).

SMILES strings stand for the structures.

For the test, the target named is BTK (Homo sapiens (Human), UniProt Q06187). The test is described as follows: biochemical.
Sequence of BTK (Q06187 whole entry, looked up, species assumed): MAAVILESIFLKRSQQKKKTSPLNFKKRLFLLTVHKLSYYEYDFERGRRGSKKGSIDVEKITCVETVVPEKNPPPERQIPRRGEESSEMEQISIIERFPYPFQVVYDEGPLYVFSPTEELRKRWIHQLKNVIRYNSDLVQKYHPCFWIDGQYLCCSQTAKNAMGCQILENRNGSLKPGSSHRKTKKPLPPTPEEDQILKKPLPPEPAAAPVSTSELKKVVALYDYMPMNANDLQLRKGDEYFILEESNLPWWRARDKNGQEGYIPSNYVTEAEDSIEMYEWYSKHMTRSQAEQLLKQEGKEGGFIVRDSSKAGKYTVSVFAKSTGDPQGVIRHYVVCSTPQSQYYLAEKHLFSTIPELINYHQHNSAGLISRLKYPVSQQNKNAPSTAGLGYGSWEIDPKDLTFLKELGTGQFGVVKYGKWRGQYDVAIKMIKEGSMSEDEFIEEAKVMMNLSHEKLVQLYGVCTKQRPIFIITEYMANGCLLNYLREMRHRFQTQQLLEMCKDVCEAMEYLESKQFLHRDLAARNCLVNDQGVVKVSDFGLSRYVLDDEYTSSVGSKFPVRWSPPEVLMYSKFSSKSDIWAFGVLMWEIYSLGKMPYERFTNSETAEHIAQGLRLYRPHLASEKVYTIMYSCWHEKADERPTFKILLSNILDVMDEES
Description: Btk kinase activity was determined using a homogenous time resolved fluorescence (HTRF) methodology. Measurements were performed in a reaction volume of 15 μL using 384-well assay plates. Kinase enzyme, inhibitor, ATP and 1 μM peptide substrate were incubated in a reaction buffer compose of Hepes50 mM (pH7.0), NaN3 0.02%, BSA 0.01%, Orthocanadate 0.1 mM. […] For each compound, enzyme activity as measured at various concentrations of compound, Negative control reactions were performed in the absence of inhibitor in two replicates and eight no enzyme controls were used to determine baseline fluorescence levels.
Usually IC50 stands for the concentration at which inhibition is half-maximal. The low end stands for greater potency in that assay, the high end for weaker potency in that assay. Regarding `CC#CC(=O)N1CCCC[C@H]1c1nc(-c2ccc(COc3ccc(F)c(F)c3)cc2)c2cnccn12` [Example 149, (S)-1-(2-(1-(4-((3,4-difluorophenoxy)methyl)phenyl)imidazo[1,5-a]pyrazin-3-yl)piperidin-1-yl)but-2-yn-1-one], the IC50 fell in the range of 1000 to 10000 nM.

Molecule `C=CC(=O)N1CCCC[C@H]1c1nc(-c2ccc(COc3ccc(F)c(F)c3)cc2)c2c(C)nccn12` [Example 150, (S)-1-(2-(1-(4-((3,4-difluorophenoxy)methyl)phenyl)-8-methylimidazo[1,5-a]pyrazin-3-yl)piperidin-1-yl)prop-2-en-1-one] showed an IC50 of 10 to 100 nM.

On to `CC#CC(=O)N1CCCC[C@H]1c1nc(-c2ccc(COc3ccc(F)c(F)c3)cc2)c2c(C)nccn12` [Example 151, (S)-1-(2-(1-(4-((3,4-difluorophenoxy)methyl)phenyl)-8-methylimidazo[1,5-a]pyrazin-3-yl)piperidin-1-yl)but-2-yn-1-one], for which the IC50 was 100 to 1000 nM.

Molecule `CC#CC(=O)N1CCCC[C@H]1c1nc(-c2ccc(OCc3cccc(F)c3)cc2)c2cnccn12` [Example 153, (S)-1-(2-(1-(4-((3-fluorobenzyl)oxy)phenyl)imidazo[1,5-a]pyrazin-3-yl)piperidin-1-yl)but-2-yn-1-one] yielded a half-maximal inhibitory concentration (IC50) of 1000 to 10000 nM.

Turning to `C=CC(=O)N1CCCC[C@H]1c1nc(-c2ccc(OCc3cccc(F)c3F)cc2)c2c(C)nccn12` [Example 154, (S)-1-(2-(1-(4-((2,3-difluorobenzyl)oxy)phenyl)-8-methylimidazo[1,5-a]pyrazin-3-yl)piperidin-1-yl)prop-2-en-1-one], the IC50 was 10 to 100 nM.

`CC#CC(=O)N1CCCC[C@H]1c1nc(-c2ccc(OCc3cccc(F)c3F)cc2)c2c(C)nccn12` [Example 155, (S)-1-(2-(1-(4-((2,3-difluorobenzyl)oxy)phenyl)-8-methylimidazo[1,5-a]pyrazin-3-yl)piperidin-1-yl)but-2-yn-1-one] registered an IC50 of 100 to 1000 nM.

Turning to `C=CC(=O)N1CCCC[C@H]1c1nc(-c2ccc(COc3cccc(F)c3)cc2)c2c(C)nccn12` [Example 156, (S)-1-(2-(1-(4-((3-fluorophenoxy)methyl)phenyl)-8-methylimidazo[1,5-a]pyrazin-3-yl)piperidin-1-yl)prop-2-en-1-one], the 50% inhibitory concentration (IC50) lay in the range of 10 to 100 nM.

In turn, `CC#CC(=O)N1CCCC[C@H]1c1nc(-c2ccc(COc3cccc(F)c3)cc2)c2c(C)nccn12` [Example 157, (S)-1-(2-(1-(4-((3-fluorophenoxy)methyl)phenyl)-8-methylimidazo[1,5-a]pyrazin-3-yl)piperidin-1-yl)but-2-yn-1-one] showed an IC50 of 100 to 1000 nM.

`C=CC(=O)N1CCCC[C@H]1c1nc(-c2ccc(COc3cccc(F)c3F)cc2)c2cnccn12` [Example 158, (S)-1-(2-(1-(4-((2,3-difluorophenoxy)methyl)phenyl)imidazo[1,5-a]pyrazin-3-yl)piperidin-1-yl)prop-2-en-1-one] displayed an IC50 of 100 to 1000 nM.

On to `CC#CC(=O)N1CCCC[C@H]1c1nc(-c2ccc(COc3cccc(F)c3F)cc2)c2cnccn12` [Example 159, (S)-1-(2-(1-(4-((2,3-difluorophenoxy)methyl)phenyl)imidazo[1,5-a]pyrazin-3-yl)piperidin-1-yl)but-2-yn-1-one], for which the IC50 was 1000 to 10000 nM.

As for `CC#CC(=O)N1CCC[C@H]1c1nc(-c2ccc(COc3cccc(OC)c3F)cc2)c2cnccn12` [Example 160, (S)-1-(2-(1-(4-((2-fluoro-3-methoxyphenoxy)methyl)phenyl)imidazo[1,5-a]pyrazin-3-yl)pyrrolidin-1-yl)but-2-yn-1-one], the IC50 fell in the range of 1000 to 10000 nM.

With `C=CC(=O)N1CCC[C@H]1c1nc(-c2ccc(COc3cccc(OC)c3F)cc2)c2cnccn12` [Example 161, (S)-1-(2-(1-(4-((2-fluoro-3-methoxyphenoxy)methyl)phenyl)imidazo[1,5-a]pyrazin-3-yl)pyrrolidin-1-yl)prop-2-en-1-one], the IC50 fell in the range of 10 to 100 nM.

For the molecule `C=CC(=O)N1CCCC[C@H]1c1nc(-c2cccc(OCc3cccc(C(F)(F)F)c3)c2)c2c(C)nccn12` [Example 162, (S)-1-(2-(8-methyl-1-(3-((3-(trifluoromethyl)benzyl)oxy)phenyl)imidazo[1,5-a]pyrazin-3-yl)piperidin-1-yl)prop-2-en-1-one], the IC50 lay within 1000 to 10000 nM.

For the molecule `CC#CC(=O)N1CCCC[C@H]1c1nc(-c2cccc(OCc3cccc(C(F)(F)F)c3)c2)c2c(C)nccn12` [Example 163, (S)-1-(2-(8-methyl-1-(3-((3-(trifluoromethyl)benzyl)oxy)phenyl)imidazo[1,5-a]pyrazin-3-yl)piperidin-1-yl)but-2-yn-1-one], the IC50 lay in the range of 1000 to 10000 nM.

As for `CC#CC(=O)N1CCC[C@H]1c1nc(-c2ccc(C(=O)Nc3cccc(OC)c3F)cc2)c2cnccn12` [Example 164, (S)-4-(3-(1-(But-2-ynoyl)pyrrolidin-2-yl)imidazo[1,5-a]pyrazin-1-yl)-N-(2-fluoro-3-methoxyphenyl)benzamide], the IC50 was in the range of 1000 to 10000 nM.

`C=CC(=O)N1CCC[C@H]1c1nc(-c2ccc(C(=O)Nc3cccc(OC)c3F)cc2)c2cnccn12` [Example 165, (S)-4-(3-(1-acryloylpyrrolidin-2-yl)imidazo[1,5-a]pyrazin-1-yl)-N-(2-fluoro-3-methoxyphenyl)benzamide] had a half-maximal inhibitory concentration (IC50) of 100 to 1000 nM.

Molecule `CC#CC(=O)N1CCC[C@H]1c1nc(-c2ccc(C(=O)Nc3ccccn3)cc2)c2cnccn12` [Example 166, (S)-4-(3-(1-(but-2-ynoyl)pyrrolidin-2-yl)imidazo[1,5-a]pyrazin-1-yl)-N-(pyridin-2-yl) benzamide] registered an IC50 of 1000 to 10000 nM.

Regarding `CC#CC(=O)N1CCC[C@@H](c2nc(-c3ccc(C(=O)Nc4ccccn4)cc3)c3cnccn23)C1` [Example 167, (R)-4-(3-(1-(but-2-ynoyl)piperidin-3-yl)imidazo [1,5-a]pyrazin-1-yl)-N-(pyridin-2-yl)benzamide], the IC50 lay in the range of 1000 to 10000 nM.

Molecule `C=CC(=O)N1CCCC[C@H]1c1nc(-c2ccc(C(=O)Nc3ccccn3)cc2)c2cnccn12` [Example 168, (S)-4-(3-(1-acryloylpiperidin-2-yl)imidazo[1,5-a]pyrazin-1-yl)-N-(pyridin-2-yl) benzamide] yielded an IC50 of 10 to 100 nM.

Consider `CC#CC(=O)N1CCCC[C@H]1c1nc(-c2ccc(C(=O)Nc3ccccn3)cc2)c2cnccn12` [Example 169, (S)-4-(3-(1-(but-2-ynoyl)piperidin-2-yl)imidazo [1,5-a]pyrazin-1-yl)-N-(pyridin-2-yl)benzamide], for which the IC50 was 100 to 1000 nM.

The molecule `CC#CC(=O)N1CCCC[C@H]1c1nc(-c2ccc(C(=O)Nc3ccccn3)cc2)c2c(C)nccn12` [Example 171, (S)-4-(3-(1-(but-2-ynoyl)piperidin-2-yl)-8-methylimidazo[1,5-a]pyrazin-1-yl)-N-(pyridin-2-yl)benzamide] had an IC50 of 10 to 100 nM.

In the case of `C=CC(=O)N1CCC[C@H]1c1nc(-c2ccc(C(=O)Nc3ccccn3)cc2)c2cncc(C)n12` [Example 172, (S)-4-(3-(1-aeryloylpyrrolidin-2-yl)-5-methylimidazo [1,5-a]pyrazin-l-yl)-N-(pyridin-2-yl)benzamide], the half-maximal inhibitory concentration (IC50) was 10 to 100 nM.

Consider `CC#CC(=O)N1CCC[C@H]1c1nc(-c2ccc(C(=O)Nc3ccccn3)cc2)c2cncc(C)n12` [Example 173, (S)-4-(3-(1-(but-2-ynoyl)pyrrolidin-2-yl)-5-methylimidazo[1,5-a]pyrazin-1-yl)-N-(pyridin-2-yl)benzamide], for which the IC50 is 1000 to 10000 nM.

`CC#CC(=O)N1CCC[C@H]1c1nc(-c2ccc(C(=O)Nc3ccccn3)cc2)c2c(C)ncc(C)n12` [Example 175, (S)-4-(3-(1-(but-2-ynoyl)pyrrolidin-2-yl)-5,8-dimethylimidazo[1,5-a]pyrazin-1-yl)-N-(pyridin-2-yl)benzamide] had an IC50 of 100 to 1000 nM.

For the molecule `C=CC(=O)N1CC[C@@H](c2nc(-c3ccc(C(=O)Nc4ccccn4)cc3)c3cnccn23)C1` [Example 176, (R)-4-(3-(1-acryloylpyrrolidin-3-yl)imidazo[1,5-a]pyrazin-1-yl)-N-(pyridin-2-yl)benzamide], the half-inhibitory concentration (IC50) is 10 to 100 nM.

On to `C=CC(=O)N1CCC[C@@H](c2nc(-c3ccc(C(=O)Nc4ccccn4)cc3)c3cncc(C)n23)C1` [Example 178, (R)-4-(3-(1-acryloylpiperidin-3-yl)-5-methylimidazo [1,5-a]pyrazin-1-yl)-N-(pyridin-2-yl)benzamide], for which the IC50 lay within 100 to 1000 nM.

`CC#CC(=O)N1CCC[C@@H](c2nc(-c3ccc(C(=O)Nc4ccccn4)cc3)c3cncc(C)n23)C1` [Example 179, (R)-4-(3-(1-(but-2-ynoyl)piperidin-3-yl)-5-methylimidazo[1,5-a]pyrazin-1-yl)-N-(pyridin-2-yl)benzamide] gave an IC50 of 1000 to 10000 nM.

Take `CC#CC(=O)N1CC[C@@H](c2nc(-c3ccc(C(=O)Nc4ccccn4)cc3)c3cncc(C)n23)C1` [Example 181, (R)-4-(3-(1-(but-2-ynoyl)pyrrolidin-3-yl)-5-methylimidazo[1,5-a]pyrazin-1-yl)-N-(pyridin-2-yl)benzamide]: the IC50 is 1000 to 10000 nM.

`C=CC(=O)N1CC[C@@H](c2nc(-c3ccc(C(=O)Nc4ccccn4)cc3)c3c(C)ncc(C)n23)C1` [Example 182, (R)-4-(3-(1-acryloylpyrrolidin-3-yl)-5,8-dimethylimidazo [1,5-a]pyrazin-1-yl)-N-(pyridin-2-yl)benzamide] displayed an IC50 of 10 to 100 nM.

Consider `CC#CC(=O)N1CC[C@@H](c2nc(-c3ccc(C(=O)Nc4ccccn4)cc3)c3c(C)ncc(C)n23)C1` [Example 183, (R)-4-(3-(1-(but-2-ynoyl)pyrrolidin-3-yl)-5,8-dimethylimidazo[1,5-a]pyrazin-1-yl)-N-(pyridin-2-yl)benzamide], for which the IC50 is 100 to 1000 nM.

`CC#CC(=O)N1CCC[C@@H](c2nc(-c3ccc(C(=O)Nc4ccccn4)cc3)c3c(C)ncc(C)n23)C1` [Example 185, (R)-4-(3-(1-(but-2-ynoyl)piperidin-3-yl)-5,8-dimethylimidazo[1,5-a]pyrazin-1-yl)-N-(pyridin-2-yl)benzamide] gave an IC50 of 100 to 1000 nM.

As for `C=CC(=O)N1CCCC[C@H]1c1nc(-c2ccc(C(=O)Nc3ccccn3)cc2)c2cncc(C)n12` [Example 186, (S)-4-(3-(1-acryloylpiperidin-2-yl)-5-methylimidazo [1,5-a]pyrazin-1-yl)-N-(pyridin-2-yl)benzamide], the IC50 is 100 to 1000 nM.
